Measured values reported in patent US20060205716A1, “Microbicidal agents” (priority 2003, published 2006).

Key:
[1] = test system: yeasts (Rhodotorula rubra); experiment: Preservation of a cooling lubricant emulsion, repeated weekly contamination: yeasts; details: limit <10^3-4 CFU/g, maximum test duration 10 weeks
Procedure: (§1) What was examined was the preserving action of CMC/MIT mixtures according to the invention in a cooling lubricant emulsion (5% mineral oil/emulsifier concentrate/95% water). To this end, biocide-free and perserved samples of a cooling lubricant emulsion were repeatedly, at weekly intervals, exposed to microbiological stress using the following microorganisms:
Yeasts: • Rhodotorula rubra
(§2) In each case, the bacteria were added separately from the yeasts/moulds.
(§3) The maximum duration of the test was 10 weeks (=10 contaminations), if the following limits were not exceeded during the weekly determination of the number of germs:
(§4) yeasts/moulds<10^3-4 CFU/g.

[2] = test system: moulds (Acremonium strictum, Fusarium solani, Geotrichum candidum); experiment: Preservation of a cooling lubricant emulsion, repeated weekly contamination: moulds; details: limit <10^3-4 CFU/g, maximum test duration 10 weeks
Procedure: as §1
Moulds: • Acremonium strictum • Fusarium solani • Geotrichum candidum
as §2, §3, §4

[3] = test system: bacteria (Pseudomonas aeruginosa, P. fluorescens, P. oleovorans, P. rubescens, P. stutzeri, Alcaligenes faecalis, Citrobacter freundii, Corynebacterium sp); experiment: Preservation of a cooling lubricant emulsion, repeated weekly contamination: bacteria; details: limit <10^6 CFU/g, maximum test duration 10 weeks
Text: as §1
Bacteria: • Pseudomonas aeruginosa • Pseudomonas fluorescens • Pseudomonas oleovorans • Pseudomonas rubescens • Pseudomonas stutzeri • Alcaligenes faecalis • Citrobacter freundii • Corynebacterium sp
as §2
The maximum duration of the test was 10 weeks (=10 contaminations), if the following limits were not exceeded during the weekly determination of the number of germs: […]

Pseudomonas fluorescens = experiment: Minimum inhibitory concentration / synergism test with test germ Pseudomonas fluorescens; format: cell-based; details: pure active compound applied on its own
Text: The observed synergism of the mixtures according to the invention can be determined by the following mathematical approach (cf. F. C. Kull, P. C. Elisman, H. D. Sylwestrowicz and P. K. Mayer, Appl. Microbiol. 9, 538 (1961): [formula] where • Qa=the amount of component A in the active compound mixture required to achieve the desired effect, i.e. no microbial growth, • QA=the amount of component A which, applied on its own, suppresses the growth of the microorganisms, • Qb=the amount of component B in the active compound mixture which suppresses the growth of the microorganisms, and • […]=the amount of component B which, applied on its own, suppresses the growth of the microorganisms.
A synergistic index of SI<1, in accordance with the above formula, indicates a synergistic effect for the active compound mixture.
The minimum inhibitory concentration of the active compound combinations listed in Table 1 were examined using the test germ Pseudomonas fluorescens

[4] = 0.15% CMC based on cooling lubricant emulsion
[5] = 0.01% MIT based on cooling lubricant emulsion

Row | SMILES | number of weeks without colonization: yeasts [1, 4] [weeks] | number of weeks without colonization: moulds [2, 4] [weeks] | number of weeks without colonization: bacteria [3, 4] [weeks] | Amount of pure active compounds required to suppress growth (QA, QB) (Pseudomonas fluorescens) | number of weeks without colonization: yeasts [1, 5] [weeks] | number of weeks without colonization: moulds [2, 5] [weeks] | number of weeks without colonization: bacteria [3, 5] [weeks]
1 | Cc1cc(O)ccc1Cl [CMC, p-chloro-m-cresol] | 10 | 10 | 3 | 150 (QA) ppm | – | – | –
2 | Cn1sccc1=O [MIT, 2-methyl-2H-isothiazol-3-one] | – | – | – | 5 (QB) ppm | 8 | 5 | 8
